For one assay, the target named is T1, Carboxypeptidase B2 (Homo sapiens, UniProt Q96IY4).
T1 sequence (Q96IY4 whole entry): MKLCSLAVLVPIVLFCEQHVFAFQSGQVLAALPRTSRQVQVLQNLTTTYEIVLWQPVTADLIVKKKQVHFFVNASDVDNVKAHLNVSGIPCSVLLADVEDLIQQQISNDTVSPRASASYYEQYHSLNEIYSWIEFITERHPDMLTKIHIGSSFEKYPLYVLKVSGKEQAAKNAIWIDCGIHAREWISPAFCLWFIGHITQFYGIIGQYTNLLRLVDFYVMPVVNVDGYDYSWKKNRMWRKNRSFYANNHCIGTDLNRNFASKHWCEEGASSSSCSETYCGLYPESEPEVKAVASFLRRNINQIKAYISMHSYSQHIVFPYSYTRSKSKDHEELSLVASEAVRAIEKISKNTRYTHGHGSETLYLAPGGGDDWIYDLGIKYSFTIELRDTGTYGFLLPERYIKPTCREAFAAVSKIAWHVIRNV

For the next assay, the target named is Coagulation factor X (Homo sapiens, UniProt P00742). As to the kind of experiment: Inhibition of factor10a (unknown origin).
Another assay has as its target Prothrombin (Homo sapiens, UniProt P00734). Put plainly: Inhibition of factor2a (unknown origin).
In a further assay the target is Coagulation factor XI (Homo sapiens, UniProt P03951). Put plainly: Inhibition of factor11a (unknown origin).
In another assay the target is T2, Coagulation factor VII (Homo sapiens, UniProt P08709).
T2 sequence (P08709 whole entry): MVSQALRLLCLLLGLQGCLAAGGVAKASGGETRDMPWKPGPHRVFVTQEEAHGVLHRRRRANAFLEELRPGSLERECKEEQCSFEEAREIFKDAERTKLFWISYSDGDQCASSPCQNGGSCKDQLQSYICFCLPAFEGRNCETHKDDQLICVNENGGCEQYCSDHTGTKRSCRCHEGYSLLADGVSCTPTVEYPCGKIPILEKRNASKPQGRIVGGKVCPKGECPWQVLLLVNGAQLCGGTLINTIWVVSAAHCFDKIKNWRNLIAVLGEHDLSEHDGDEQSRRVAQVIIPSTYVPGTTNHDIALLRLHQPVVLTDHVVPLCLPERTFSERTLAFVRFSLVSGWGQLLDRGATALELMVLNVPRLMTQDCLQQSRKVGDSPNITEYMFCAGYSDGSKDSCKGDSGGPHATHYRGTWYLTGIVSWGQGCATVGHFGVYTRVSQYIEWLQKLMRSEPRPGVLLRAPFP
As to the kind of experiment: Inhibition of factor7a (unknown origin).

The target of assay [1] is T3, Carboxypeptidase N catalytic chain (Homo sapiens, UniProt P15169).
T3 sequence (P15169 whole entry): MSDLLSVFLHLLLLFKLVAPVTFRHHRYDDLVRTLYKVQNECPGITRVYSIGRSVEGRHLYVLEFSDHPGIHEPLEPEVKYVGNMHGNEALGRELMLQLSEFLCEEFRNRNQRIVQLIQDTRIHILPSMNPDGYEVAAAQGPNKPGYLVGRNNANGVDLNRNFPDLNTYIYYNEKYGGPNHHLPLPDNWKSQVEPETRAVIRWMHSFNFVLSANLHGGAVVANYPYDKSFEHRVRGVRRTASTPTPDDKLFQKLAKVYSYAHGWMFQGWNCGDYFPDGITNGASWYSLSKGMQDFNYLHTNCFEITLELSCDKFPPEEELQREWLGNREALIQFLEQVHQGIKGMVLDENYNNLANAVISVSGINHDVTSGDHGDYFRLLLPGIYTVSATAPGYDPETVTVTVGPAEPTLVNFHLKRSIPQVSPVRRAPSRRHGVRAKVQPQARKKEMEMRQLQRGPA
As to the kind of experiment: Inhibition of CPN (unknown origin).

In another assay the target is T4, Carboxypeptidase A1 (Homo sapiens, UniProt P15085).
T4 sequence (P15085 whole entry): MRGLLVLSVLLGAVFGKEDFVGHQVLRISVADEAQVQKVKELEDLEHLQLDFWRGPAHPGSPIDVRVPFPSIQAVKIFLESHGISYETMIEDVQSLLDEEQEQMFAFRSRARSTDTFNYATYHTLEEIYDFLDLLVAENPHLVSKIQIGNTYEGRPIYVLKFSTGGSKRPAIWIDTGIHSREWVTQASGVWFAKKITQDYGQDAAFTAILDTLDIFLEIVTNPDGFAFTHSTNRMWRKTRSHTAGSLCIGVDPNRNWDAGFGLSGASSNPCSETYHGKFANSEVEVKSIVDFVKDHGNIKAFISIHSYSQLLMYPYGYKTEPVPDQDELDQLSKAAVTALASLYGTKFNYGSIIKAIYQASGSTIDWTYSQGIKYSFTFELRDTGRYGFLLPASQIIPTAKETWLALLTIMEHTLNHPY
Put plainly: Inhibition of CPA (unknown origin).

The text below walks through data of ChEMBL document CHEMBL3576790, “Novel Small Molecule Inhibitors of Activated Thrombin Activatable Fibrinolysis Inhibitor (TAFIa) from Natural Product Anabaenopeptin” (J Med Chem, 2015).

*1 amine or outer side, *2 acyl side, *3 side chain or, on linkers, in order; H or OH if unused. Where a SMILES comes first, the peptide text is derived from it. Bridges are numbered along the chain shown (N, C = ends). [ ]: non-standard residue; d: D form. hTyr = N[C@@H](CCc1ccc(O)cc1)C(=O)O; NMeA = CN[C@@H](C)C(=O)O; CO = O=C([*:1])[*:2] A value given as a limit tells only on which side of the number the result lay.

Chain of Coagulation factor XI (P03951 19-387 limits assumed): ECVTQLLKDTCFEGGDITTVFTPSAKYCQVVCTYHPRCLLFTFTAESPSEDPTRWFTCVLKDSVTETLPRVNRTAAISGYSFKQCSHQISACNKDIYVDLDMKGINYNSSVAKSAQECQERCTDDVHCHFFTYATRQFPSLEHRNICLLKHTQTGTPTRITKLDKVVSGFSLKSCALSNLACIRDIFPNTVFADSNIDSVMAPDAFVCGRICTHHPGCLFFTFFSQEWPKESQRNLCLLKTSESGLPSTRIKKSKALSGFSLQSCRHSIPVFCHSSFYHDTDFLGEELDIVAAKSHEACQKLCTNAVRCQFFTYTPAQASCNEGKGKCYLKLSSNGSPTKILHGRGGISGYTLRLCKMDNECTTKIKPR
Chain of Coagulation factor XI (P03951 388-625 limits assumed): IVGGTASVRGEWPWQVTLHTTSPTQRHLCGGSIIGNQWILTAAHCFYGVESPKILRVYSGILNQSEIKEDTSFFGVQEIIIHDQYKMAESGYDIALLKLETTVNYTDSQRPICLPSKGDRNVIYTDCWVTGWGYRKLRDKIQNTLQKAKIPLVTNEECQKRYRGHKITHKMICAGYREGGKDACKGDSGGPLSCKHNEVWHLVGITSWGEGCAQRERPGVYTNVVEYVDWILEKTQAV
Chain of Coagulation factor X (P00742 41-179 limits assumed): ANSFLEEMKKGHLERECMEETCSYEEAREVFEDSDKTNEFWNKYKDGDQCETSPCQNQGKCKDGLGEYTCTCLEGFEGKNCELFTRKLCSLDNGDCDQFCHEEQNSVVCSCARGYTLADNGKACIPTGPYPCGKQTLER
Chain of Coagulation factor X (P00742 235-488 limits assumed): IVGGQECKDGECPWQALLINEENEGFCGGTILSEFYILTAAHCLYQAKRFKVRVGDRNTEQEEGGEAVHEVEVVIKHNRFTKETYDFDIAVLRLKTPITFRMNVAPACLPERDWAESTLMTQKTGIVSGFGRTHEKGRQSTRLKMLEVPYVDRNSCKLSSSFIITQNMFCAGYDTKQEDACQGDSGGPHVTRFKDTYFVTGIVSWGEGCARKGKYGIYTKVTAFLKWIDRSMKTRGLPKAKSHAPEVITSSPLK
Description for Carboxypeptidase B2: Inhibition of human activated TAFI incubated for 15 mins by microtiter plate reader based assay

The IC50 is the concentration at which inhibition is half-maximal. A low value points to greater potency. As to `CC(C)CCNC(=O)[C@@H](CCCCNC(=O)OCc1ccccc1)NC(=O)N[C@@H](CCCCN)C(=O)O`, the IC50 against Carboxypeptidase B2 worked out at 1400 nM. The compound `CCC[C@@H](NC(=O)N[C@@H](CCCCN)C(=O)O)C(=O)NC1CC2(C)CCC1C2(C)C` (stereo partly specified) came in with a half-inhibitory concentration (IC50) on Carboxypeptidase B2 of 15 nM. As to `CC(C)[C@@H]1NC(=O)[C@H](NC(=O)N[C@@H](CCCNC(=N)N)C(=O)O)CCCCNC(=O)[C@H](Cc2ccccc2)NC(=O)[C@H](C)N(C)C(=O)[C@H](CCc2ccc(O)cc2)NC1=O` [ANABAENOPEPTIN B] ({Arg-CO}-[dK]V[hTyr][NMeA]F; lactam 1-C), the IC50 against Coagulation factor X was > 100000 nM; on Prothrombin, 1600 nM; on Coagulation factor XI, 24000 nM; against Coagulation factor VII, > 100000 nM.

`CC(C)C[C@@H](NC(=O)N[C@@H](CCCCN)C(=O)O)C(=O)NC1CC2(C)CCC1C2(C)C` (single isomer, unassigned; (+)) showed an IC50 against Carboxypeptidase B2 of 57 nM. At Carboxypeptidase B2, `CC(C)(NC(=O)N[C@@H](CCCCN)C(=O)O)C(=O)NC1CC2(C)CCC1C2(C)C` (stereo partly specified) yielded an IC50 of 6100 nM. The same measure, in the same setting: the value for `CC12CCC(C(NC(=O)[C@@H](CC3CCCCC3)NC(=O)N[C@H](Cc3ccc(N)nc3)C(=O)O)C1)C2(C)C` (stereo partly specified) was 250 nM.

For `CC(C)[C@@H]1NC(=O)[C@H](NC(=O)N[C@@H](CCCCN)C(=O)O)CCCCNC(=O)[C@H](Cc2ccccc2)NC(=O)[C@H](C)N(C)C(=O)[C@H](CCc2ccc(O)cc2)NC1=O`, the IC50 is > 100000 nM against Coagulation factor X; 6000 nM against Prothrombin; 12000 nM on Coagulation factor XI; 5700 nM in assay [1]; > 100000 nM on Coagulation factor VII; > 100000 nM at Carboxypeptidase A1. Regarding `CC12CCC(C(NC(=O)[C@@H](CC3CCCCC3)NC(=O)N[C@@H](CS(=O)(=O)CCN)C(=O)O)C1)C2(C)C` (stereo partly specified), the IC50 against Carboxypeptidase B2 came out at 38 nM. The same measure, in the same setting: the value for `CC12CCC(C(NC(=O)[C@@H](CC3CCCCC3)NC(=O)N[C@@H](Cc3ccc(N)nc3)C(N)=O)C1)C2(C)C` (stereo partly specified) was 570 nM. At Carboxypeptidase B2, `CC12CCC(C(NC(=O)[C@H](NC(=O)N[C@@H](CCCCN)C(=O)O)C3CCCCC3)C1)C2(C)C` (stereo partly specified) had an IC50 of 1000 nM.

In turn, `CC12CCC(C(NC(=O)[C@@H](CC3CCCCC3)NC(=O)N[C@H](C#N)Cc3ccc(N)nc3)C1)C2(C)C` (stereo partly specified) displayed an IC50 on Carboxypeptidase B2 of 54000 nM.

As for `CC12CCC(C(NC(=O)[C@@H](CC3CCCCC3)NC(=O)N[C@@H](Cc3ccc(N)nc3)C(=O)O)C1)C2(C)C` (stereo partly specified), the IC50 against Carboxypeptidase B2 was found to be 1 nM. On to `CC[C@H](C)[C@@H]1NC(=O)[C@H](NC(=O)N[C@@H](CCCNC(=N)N)C(=O)O)CCCCNC(=O)[C@H](Cc2ccccc2)NC(=O)[C@H](C)N(C)C(=O)[C@H](CCc2ccc(O)cc2)NC1=O` [ANABAENOPEPTIN F] ({Arg-CO}-[dK]I[hTyr][NMeA]F; lactam 1-C), for which the concentration for half-maximal inhibition (IC50) against Coagulation factor X turned out to be 38000 nM; at Prothrombin, 350 nM; at Coagulation factor XI, 3900 nM; at Coagulation factor VII, 35000 nM. `NCCCC[C@H](NC(=O)N[C@H](CC1CCCCC1)C(=O)NCC(c1ccccc1)c1ccccc1)C(=O)O` displayed an IC50 on Carboxypeptidase B2 of 120 nM. On the same count and under the same terms, with `CC12CCC(C(NC(=O)[C@@H](Cc3ccccc3)NC(=O)N[C@@H](CCCCN)C(=O)O)C1)C2(C)C` (single isomer, unassigned; (+)) the figure was 15 nM.
